In US20080227829A1, “Neurogenic compounds” (priority 2007, published 2008):
Entries after “also recorded” stand apart in the source; their conditions may differ.

Assays:
dentate gyrus = assay: BrdU/NeuN/GFAP phenotyping of newly dividing cells (neurogenesis) in the dentate gyrus; type: in vivo, mice; settings: for number of BrdU+ cells co-labeled with NeuN (new neurons) in the dentate gyrus: 25 mg/kg i.p. 42 days, runners, vs all other groups, p<0.001
Source text: After the long-term study of Example 1 and all behavioral testing was concluded (Day 42), mice were perfused using 4% paraformaldehyde and their brain tissue was extracted. Brain tissue was sectioned and stained for BrdU/DAB quantification of dividing cells. A second immunofluorescence stain was used for phenotyping of the newly dividing cells. Brain sections were also taken and stained with Brdu/NeuN/GFAP. Phenotype analysis was completed to determine the percentage of dividing cells co-labeled with NeuN, a marker used to identify mature neurons. Using the percentage, it was possible to calculate the total number of BrdU/NeuN co-labeled cells in the dentate gyrus.

b-catenin = assay: Western blot of phosphorylated signaling mediators; type: cell-based; settings: adult neural progenitor cells; negative controls show the same results
Method: (§1) Adult neural progenitor cells were grown in proliferating conditions (N2 containing FGF2) in six-well plates for at least twenty-four hours. Before collecting cell lysates, the media was removed and replaced with DMEM/F12 for two hours (DMEM/F12 is defined media which lacks insulin and FGF2, two factors known to trigger various cell signaling pathways). In this key “starvation” step, the activation of various downstream mediators returned to steady-state levels. Cells were starved for two hours and the time zero data were collected. One of the following was added and the lysates collected at various time-points: (1) N2 only or (−) DMSO (negative control); (2) (+) DMSO (also a negative control); (3) apigenin; or (4) RA+FSK (positive control). Two time-course experiments were then carried out. The first was an early time-course to measure the acute effects of apigenin at zero minutes, ten minutes, thirty minutes, two hours, six hours, and twenty-four hours. The second experiment was a late time-course to measure long-term effects of apigenin at zero, one, two, three, and four days; the results of this experiment are not discussed here. Cell lysates were then loaded and transferred to Western Blots and the membranes hybridized with antibodies against the phosphorylated and unphosphorylated forms of each protein. The data results with the unphosphorylated form of the protein are not discussed here. The data discussed with respect to the phosphorylated protein are representative of at least three independent experiments and are normalized to the unphosphylated forms (internal control).

AKT = assay: Western blot of phosphorylated signaling mediators; type: cell-based; settings: 5 mM apigenin; by six hours; adult neural progenitor cells starved two hours; normalized to unphosphorylated form
Method: as §1

CREB = assay: Western blot of phosphorylated signaling mediators; type: cell-based; settings: adult neural progenitor cells; negative controls show the same results
Method: as §1

GSK3b = assay: Western blot of phosphorylated signaling mediators; type: cell-based; settings: adult neural progenitor cells; negative controls show the same results
Method: as §1

ERKs = assay: Western blot of phosphorylated signaling mediators; type: cell-based; settings: adult neural progenitor cells; negative controls show the same results
Method: as §1

NeuroD = NeuroD luciferase reporter assay; type: cell-based; settings: 5 mM apigenin; cells first allowed to proliferate with FGF2 for twenty-four hours; 2-day treatment
Method: Adult neural progenitor cells were plated in N2 media containing FGF2 for twenty-four hours. See Bottenstein et al., Growth of a rat neuroblastoma cell line in serum-free supplemented medium, Proc. Natl. Acad. Sci. USA 76(1) (1979) (describing components of N2 media).
The cells were replaced with fresh N2 media (without FGF2) and apigenin was added. In all experiments, 5 mM apigenin dissolved in DMSO was used. As a positive control for neuronal differentiation, N2 media containing retinoic acid (RA) and forskolin (FSK) was used. As a negative control, N2 media and the equivalent amount of DMSO or N2 was used. Either a NeuroD luciferase reporter assay (purchased from Promega, cat. No. e-1980, Dual-Luciferase Reporter 1000 Assay System) was performed two days later or immunohistochemistry was performed four days later. […]

mice = assay: Morris water maze (acquisition training and probe trial), long-term injection study; type: in vivo
Method: A six-week study was conducted in which apigenin was administered by injection to mice at two different doses in conjunction with or without daily voluntary exercise (running). Behavioral testing was administered after 30 days of injections using the Morris water maze and object recognition test. Apigenin was dissolved in [10:90] Tween 80: 0.9% NaCl. All compounds were purchased from commercial sources. Aliquots of Tween 80: 0.9% NaCl solutions were used for testing in the in vivo model. Sixty-four mice (age seven wks) were divided into four test groups (sixteen per group) and received either: Injections were administered intraperitoneally (i.p.) for forty-two days total. In addition to test injections, daily i.p. injections of 5-bromo-2-deoxyuridine (BrdU) [10 mg/ml] were administered for the first eight days at a dose of 50 mg/kg. Within each test group, eight mice were randomly selected to receive running exercise. These thirty-two mice (eight mice per injection group) were transferred daily (on Days 1-40 of the study) from their normal static housing to an automated voluntary running wheel cage for two hours a day. Non-running mice remained in their static cages throughout the study. On Day 31, all mice began acquisition training on the Morris water maze immediately following their i.p. injection. See, e.g., Morris, Developments of a water-maze procedure for studying spatial learning in the rat, J. Neurosci. Methods, 11(1) (1984), hereby incorporated herein by reference. Mice were trained for nine consecutive days, receiving two trials a day using a hidden platform paradigm. The platform was located in the northwest (NW) quadrant of the water maze. To measure the effect of apigenin (with or without exercise) on learning, latency to platform was recorded for each trial. After daily training on the water maze, non-running mice were returned to their normal static housing while running mice were placed into their running wheel cages for two hours. On Day 9 of the water maze training, the mice received a probe trial 4 hours after the last training. During the probe trial the platform was removed and retention of memory of the target NW quadrant was recorded.

Compound: O=c1cc(-c2ccc(O)cc2)oc2cc(O)cc(O)c12 [apigenin]
- number of BrdU+ cells co-labeled with NeuN (new neurons) in the dentate gyrus (dentate gyrus): significantly higher number of new neurons than all other mice in the study
- number of BrdU+ cells co-labeled with NeuN (new neurons) in the dentate gyrus (dentate gyrus; listed as Apigenin): significantly more new neurons than all other groups; also recorded: greatest increase in neurogenesis
- differentiation of the dividing cells into neurons (dentate gyrus; overall statement): increases
- phosphorylation of b-catenin (b-catenin): non-specific effects
- phosphorylation of AKT (pAKT) (AKT): increased phosphorylation of AKT
- phosphorylation of CREB (CREB): non-specific effects
- phosphorylation of GSK3b (GSK3b): non-specific effects
- phosphorylation of ERKs (ERKs): non-specific effects
- NeuroD-activation (luciferase) as compared to activation by RA+FSK (NeuroD): two-fold higher
- probe trial: frequency into target quadrant (mice; 12.5 mg/kg i.p., non-runners, p<0.06): trend toward significance
- latency to platform (acquisition phase) (mice; 12.5 mg/kg i.p., non-runners, vs control): No significant differences
- probe trial: frequency into target quadrant (mice; 12.5 mg/kg i.p., runners, p<0.001): significant preference for the target quadrant
- latency to platform (acquisition phase) (mice; 12.5 mg/kg i.p., runners, vs control runners and control non-runners, p<0.05): significantly shorter latencies
- probe trial: frequency into target quadrant (mice; 25 mg/kg i.p., non-runners, p<0.05): significant preference for the target quadrant
- latency to platform (acquisition phase) (mice; 25 mg/kg i.p., non-runners, vs control runners, p<0.05): significantly different from the control runners
- probe trial: frequency into target quadrant (mice; 25 mg/kg i.p., runners, p<0.06): strong preference for entering the target quadrant more frequently than other quadrants, although this is not statistically significant
- latency to platform (acquisition phase) (mice; 25 mg/kg i.p., runners, vs control runners and control non-runners, p<0.05): significantly shorter latencies
- probe trial: total duration of time spent in the quadrants (mice; 12.5 and 25 mg/kg i.p., runners and non-runners): no significant differences among the groups
- probe trial: frequency in quadrants (FIG. 1 legend) (mice; apigenin treated mice, runners and non-runners): entered the target quadrant more frequently than all other quadrants
- learning (summary of water maze) (mice; with or without exercise): increases learning with or without exercise
